Among the data in patent publication US11319324B2, “Pyrazolo-pyrrolo-pyrimidine-dione derivatives as P2X3 inhibitors” (Bayer Aktiengesellschaft, priority 2017, dated 2022) are IC50 values, retold here.

The test concerns the target T1, human P2X3 receptor (Homo sapiens, UniProt P56373).
T1 sequence (P56373 1-397): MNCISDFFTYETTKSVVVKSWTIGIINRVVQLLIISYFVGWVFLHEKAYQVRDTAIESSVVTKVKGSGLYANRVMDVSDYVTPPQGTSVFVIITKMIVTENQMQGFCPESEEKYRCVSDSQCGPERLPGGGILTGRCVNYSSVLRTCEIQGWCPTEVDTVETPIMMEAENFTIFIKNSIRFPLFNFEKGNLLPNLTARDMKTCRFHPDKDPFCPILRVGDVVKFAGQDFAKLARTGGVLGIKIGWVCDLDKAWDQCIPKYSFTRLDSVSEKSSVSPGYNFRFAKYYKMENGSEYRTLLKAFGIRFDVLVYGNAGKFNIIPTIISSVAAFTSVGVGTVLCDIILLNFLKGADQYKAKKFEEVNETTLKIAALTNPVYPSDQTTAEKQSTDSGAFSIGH
Kind of test: Intracellular calcium measurement to assess antagonist activity at human P2X3 receptors (hP2X3 CHO), photina luminescence. Format: cell-based. The arrangement: expressed in transfected cells; host or cells: Chinese hamster ovary (CHO) cells. To be noted: column 2), CHO cells, agonist α,β-methylene-ATP at EC50. As for the experimental part:
2) Intracellular Calcium Measurement to Assess Antagonist Activity at Human P2X3 Receptors (hP2X3 CHO)
The determination of antagonistic activity at the P2X3 receptor of the compounds of the invention was performed by use of a recombinant cell line. This cell line derives originally from the Chinese hamster ovary (CHO) cell line (Tjio J. H.; Puck T. T., 1958, J. Exp. Med. 108: 259-271). The cell line is stably transfected with the human P2X3 receptor and a calcium-sensitive photoprotein, mitochondrial photina, which, after reconstitution with the cofactor coelenterazine, emits light in dependence of calcium binding [Bovolenta S, Foti M, Lohmer S, Corazza S., J Biomol Screen. 2007 August; 12(5):694-704]. The strength of the photina luminescence signal corresponds to the level of receptor activation upon agonist binding. An inhibitor would decrease the signal depending on its potency and concentration. Bioluminescence was detected using a suitable luminometer [Milligan G, Marshall F, Rees S, Trends in Pharmacological Sciences 17,235-237 (1996)].
On the day before the assay, the cells were plated out in culture medium (DMEM/F12 (PAN, P04-41451), 10% FCS) in 384-well microtiter plates and kept in a cell incubator (96% humidity, 5% v/v CO2, […]). On the day of the assay medium was replaced by 2 mM Ca-tyrode buffer containing 5 μg/ml coelenterazine. Plates were incubated for 3 hours at 37° C. (96% humidity, 5% v/v CO2). […] The resulting light signal was measured immediately in the luminometer.
On the technique in general: A change in cytosolic calcium serves as a functional read-out for many receptors and channels.
Usually IC50 stands for the concentration at which inhibition is half-maximal. For `CCc1cc2n(CC(=O)Nc3ccc(F)cn3)c3c(c(=O)n2n1)CN(C(C)CO)C3=O` (racemic) [Example 137, 2-{2-ethyl-6-[(±)-1-hydroxypropan-2-yl]-5,8-dioxo-5,6,7,8-tetrahydro-4H-pyrazolo[1,5-a]pyrrolo[3,4-d]pyrimidin-4-yl}-N-(5-fluoropyridin-2-yl)acetamide], the IC50 was 155 nM. Then `CC(C)N1Cc2c(n(CC(=O)Nc3ccc(F)cn3)c3cc([C@@H]4CCOC4)nn3c2=O)C1=O` (single isomer, unassigned) [Example 280, 2-{5,8-dioxo-2-[oxolan-3-yl]-6-(propan-2-yl)-5,6,7,8-tetrahydro-4H-pyrazolo[1,5-a]pyrrolo[3,4-d]pyrimidin-4-yl}-N-(5-fluoropyridin-2-yl)acetamide], with 57 nM. Then `CC(C)N1Cc2c(n(CC(=O)Nc3ccc(F)cn3)c3cc([C@H]4CCOC4)nn3c2=O)C1=O` (single isomer, unassigned) [Example 281, 2-{5,8-dioxo-2-[oxolan-3-yl]-6-(propan-2-yl)-5,6,7,8-tetrahydro-4H-pyrazolo[1,5-a]pyrrolo[3,4-d]pyrimidin-4-yl}-N-(5-fluoropyridin-2-yl)acetamide], with 42 nM; and `CC(C)N1Cc2c(n(CC(=O)Nc3ccc(F)cn3)c3cc(C(=O)O)nn3c2=O)C1=O` [Example 84, 4-{2-[(5-Fluoropyridin-2-yl)amino]-2-oxoethyl}-5,8-dioxo-6-(propan-2-yl)-5,6,7,8-tetrahydro-4H-pyrazolo[1,5-a]pyrrolo[3,4-d]pyrimidine-2-carboxylic acid], with 1400 nM. Then `CCc1cc2n(CC(=O)Nc3ccc(F)cn3)c3c(c(=O)n2n1)CN(C1CCN(C)CC1)C3=O` [Example 87], with 1650 nM. Consider `O=C(Cn1c2c(c(=O)n3nc(C(F)(F)F)cc13)CN(CCN1CCOCC1)C2=O)Nc1ccc(F)cn1` [Example 103], for which the IC50 is 143 nM. With `O=C(Cn1c2c(c(=O)n3nc(Br)cc13)CN(CCN1CCOCC1)C2=O)Nc1ccc(F)cn1` [Example 111] the figure was 225 nM; with `CCc1cc2n(CC(=O)Nc3ccc(F)cn3)c3c(c(=O)n2n1)CN(CC1CCC1)C3=O` [Example 113], 113 nM. Then `CCc1cc2n(CC(=O)Nc3ccc(F)cn3)c3c(c(=O)n2n1)CN(CC1CN(C(=O)OC(C)(C)C)C1)C3=O` [Example 115], with 205 nM; and `CCc1cc2n(CC(=O)Nc3ccc(F)cn3)c3c(c(=O)n2n1)CN(C1CN(C(=O)OC(C)(C)C)C1)C3=O` [Example 116], with 585 nM.

Turning to `CCc1cc2n(CC(=O)Nc3ccc(F)cn3)c3c(c(=O)n2n1)CN(C1CCCOC1)C3=O` (stereo not drawn) [Example 118], the IC50 was found to be 131 nM. With `CCc1cc2n(CC(=O)Nc3ccc(F)cn3)c3c(c(=O)n2n1)CN(C1CCS(=O)(=O)CC1)C3=O` [Example 119] the figure was 470 nM. With `CCOC(=O)c1cc2n(CC(=O)Nc3ccc(F)cn3)c3c(c(=O)n2n1)CN(C1CCOCC1)C3=O` [Example 122] the figure was 94 nM. Then `CCOC(=O)c1cc2n(CC(=O)Nc3ccc(F)cn3)c3c(c(=O)n2n1)CN(CCN1CCOCC1)C3=O` [Example 123], with 21 nM; and `CCOC(=O)c1cc2n(CC(=O)Nc3ccc(F)cn3)c3c(c(=O)n2n1)CN(Cc1ccccn1)C3=O` [Example 124], with 10 nM. With `Cc1cc2n(CC(=O)Nc3ccc(F)cn3)c3c(c(=O)n2n1)CN(CC1CCO1)C3=O` (stereo not drawn) [Example 125], the IC50 was 240 nM. With `CCc1cc2n(CC(=O)Nc3ccc(F)cn3)c3c(c(=O)n2n1)CN(CC)C3=O` [Example 126] the figure was 57 nM; with `CCc1cc2n(CC(=O)Nc3ccc(F)cn3)c3c(c(=O)n2n1)CN(C)C3=O` [Example 127], 43 nM; with `O=C(Cn1c2c(c(=O)n3nc(-c4ccncc4)cc13)CN(Cc1ccc(F)cc1)C2=O)Nc1ccc(F)cn1` [Example 129], 53 nM. With `O=C(Cn1c2c(c(=O)n3nc(-c4ccncc4)cc13)CN(Cc1ccccn1)C2=O)Nc1ccc(F)cn1` [Example 130] the figure was 14 nM; with `O=C(Cn1c2c(c(=O)n3nc(-c4ccncc4)cc13)CN(Cc1cccnc1)C2=O)Nc1ccc(F)cn1` [Example 131], 14 nM. Regarding `O=C(Cn1c2c(c(=O)n3nc(-c4ccncc4)cc13)CN(CCN1CCOCC1)C2=O)Nc1ccc(F)cn1` [Example 132], the IC50 is 18 nM. For the compound `CC(C)N1Cc2c(n(CC(=O)Nc3ccc(F)cn3)c3cc(Cc4ccccn4)nn3c2=O)C1=O` [Example 133], the IC50 turned out to be 22 nM.

`CCc1cc2n(CC(=O)Nc3ccc(F)cn3)c3c(c(=O)n2n1)CN(C(C)(C)CO)C3=O` [Example 136, 2-[2-ethyl-6-(1-hydroxy-2-methylpropan-2-yl)-5,8-dioxo-5,6,7,8-tetrahydro-4H-pyrazolo[1,5-a]pyrrolo[3,4-d]pyrimidin-4-yl]-N-(5-fluoropyridin-2-yl)acetamide]: the IC50 amounted to 56 nM. `CC(C)N1Cc2c(n(CC(=O)Nc3ccc(F)cn3)c3cc(C4=COCC4)nn3c2=O)C1=O` [Example 144, 2-[2-(4,5-dihydrofuran-3-yl)-5,8-dioxo-6-(propan-2-yl)-5,6,7,8-tetrahydro-4H-pyrazolo[1,5-a]pyrrolo[3,4-d]pyrimidin-4-yl]-N-(5-fluoropyridin-2-yl)acetamide]: the IC50 stood at 36 nM. On to `CC(C)N1Cc2c(n(CC(=O)Nc3ccc(F)cn3)c3cc(C4=CCS(=O)(=O)CC4)nn3c2=O)C1=O` [Example 145, 2-[2-(1,1-dioxo-1,2,3,6-tetrahydro-1lambda^6-thiopyran-4-yl)-5,8-dioxo-6-(propan-2-yl)-5,6,7,8-tetrahydro-4H-pyrazolo[1,5-a]pyrrolo[3,4-d]pyrimidin-4-yl]-N-(5-fluoropyridin-2-yl)acetamide], for which the IC50 is 33 nM.

As for `N#Cc1cc2n(CC(=O)Nc3ccc(F)cn3)c3c(c(=O)n2n1)CN(CCN1CCOCC1)C3=O` [Example 147], the IC50 worked out at 225 nM. With `COC[C@H](C)N1Cc2c(n(CC(=O)Nc3ccc(F)cn3)c3cc(C#N)nn3c2=O)C1=O` [Example 148] the figure was 225 nM; with `Cc1cccnc1-c1cc2n(CC(=O)Nc3ccc(F)cn3)c3c(c(=O)n2n1)CN(C(C)C)C3=O` [Example 163], 398 nM; with `Cc1cnc(-c2cc3n(CC(=O)Nc4ccc(F)cn4)c4c(c(=O)n3n2)CN(C(C)C)C4=O)c(C)c1` [Example 166, 2-[2-(3,5-dimethylpyridin-2-yl)-5,8-dioxo-6-(propan-2-yl)-5,6,7,8-tetrahydro-4H-pyrazolo[1,5-a]pyrrolo[3,4-d]pyrimidin-4-yl]-N-(5-fluoropyridin-2-yl)acetamide], 5 nM. Regarding `CNc1cc2n(CC(=O)Nc3ccc(F)cn3)c3c(c(=O)n2n1)CN(C(C)C)C3=O` [Example 174], the IC50 worked out at 59 nM. In the case of `CNc1cc2n(CC(=O)Nc3ccc(F)cn3)c3c(c(=O)n2n1)CN([C@@H](C)COC)C3=O` [Example 179], the half-inhibitory concentration (IC50) is 120 nM. `COc1ccccc1NC(=O)c1cc2n(CC(=O)Nc3ccc(F)cn3)c3c(c(=O)n2n1)CN(C(C)C)C3=O` [Example 202]: the IC50 came to 135 nM.

Take `CC(C)N1Cc2c(n(CC(=O)Nc3ccc(F)cn3)c3cc(C(=O)Nc4ccccc4Cl)nn3c2=O)C1=O` [Example 203]: the IC50 was found to be 25 nM. Then `Cc1ccccc1NC(=O)c1cc2n(CC(=O)Nc3ccc(F)cn3)c3c(c(=O)n2n1)CN(C(C)C)C3=O` [Example 204], with 36 nM. With `CC(C)N1Cc2c(n(CC(=O)Nc3ccc(F)cn3)c3cc(C(=O)Nc4cccc(F)c4)nn3c2=O)C1=O` [Example 206] the figure was 47 nM; with `CC(C)N1Cc2c(n(CC(=O)Nc3ccc(F)cn3)c3cc(C(=O)Nc4ccc(F)cc4)nn3c2=O)C1=O` [Example 208], 28 nM. With `CC(C)N1Cc2c(n(CC(=O)Nc3ccc(F)cn3)c3cc(C(=O)Nc4ncco4)nn3c2=O)C1=O` [Example 209] the figure was 123 nM; with `CC(C)N1Cc2c(n(CC(=O)Nc3ccc(F)cn3)c3cc(C(=O)Nc4ncccn4)nn3c2=O)C1=O` [Example 210], 28 nM; with `CC(C)N1Cc2c(n(CC(=O)Nc3ccc(F)cn3)c3cc(C(=O)Nc4ccon4)nn3c2=O)C1=O` [Example 211], 26 nM.

As for `CC(C)N1Cc2c(n(CC(=O)Nc3ccc(F)cn3)c3cc(C(=O)Nc4cccnn4)nn3c2=O)C1=O` [Example 212], the IC50 stood at 22 nM. Then `CC(C)N1Cc2c(n(CC(=O)Nc3ccc(F)cn3)c3cc(C(=O)Nc4ccc(Cl)cn4)nn3c2=O)C1=O` [Example 213], with 93 nM.
